Values after ≈ are worked out from the molar mass of the structure shown. Read-outs that look alike come from different tables or passages of the source.
What was measured:
Septoria tritici (St) = assay: In vitro pathogen growth inhibition assay, St; format: cell-based; conditions: Zymoseptoria tritici, 48 h
Procedure, shortened: (§1)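 Spores in 17% V8 liquid medium, or 1.5 mm Rs mycelial plugs in ¼ PDB, incubated with compound; final concentration checked by OD600 for precipitation. OD readings at 24 and 48 h, blank-subtracted, plus visual ratings; value is concentration giving ≥90% growth inhibition.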

Botrtyis cinerea (Bc) = assay: In vitro pathogen growth inhibition assay, Bc; format: cell-based; conditions: 48 h
Procedure, shortened: as §1

Diplodia maydis (Dm) = assay: In vitro pathogen growth inhibition assay, Dm; format: cell-based; conditions: Stenocarpella maydis, 48 h
Procedure, shortened: (§2)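 Value reported is the compound concentration reaching ≥90% growth inhibition, from OD readings at 24 and 48 h after blank subtraction, confirmed visually. Inoculum was spores diluted in 17% V8 medium, except Rs, using 1.5 mm mycelial plugs in ¼ PDB; actual compound concentration corrected via OD600.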

[1] = tested on: Fusarium virguliforme (Fv); assay: In vitro pathogen growth inhibition assay, Fv; format: cell-based
Procedure, shortened: as §2

[2] = tested on: Phytophthora capsici (Pc); assay: In vitro pathogen growth inhibition assay, Pc; format: cell-based; conditions: 48 h
Procedure, shortened: as §2

[3] = tested on: Fusarium moniliforme (Fm); assay: In vitro pathogen growth inhibition assay, Fm; format: cell-based; conditions: Fusarium verticillioides
Procedure, shortened: as §1

[4] = tested on: Collectotrichum graminicola (Cg); assay: In vitro pathogen growth inhibition assay, Cg; format: cell-based; conditions: 48 h
Procedure, shortened: as §1

Rhizoctonia solani (Rs) = assay: In vitro pathogen growth inhibition assay, Rs (mycelial plugs); format: cell-based; conditions: Rhizoctonia solani, 48 h, mycelial plugs
Procedure, shortened: as §2

[5] = tested on: Saccharomyces cerevisiae (Sc); assay: Yeast growth inhibition assay; format: cell-based; conditions: for IC75: Saccharomyces cerevisiae, ≥75% inhibition, read-out: Compound Concentration (ppm) sufficient for ≥75% inhibition, Sc
Method: Both tables list the concentration of each compound that was sufficient to ≥90% inhibition of growth for each of the fungal pathogens listed above. In addition, some of compounds were tested in a yeast growth inhibition assay for Saccharomyces cerevisiae (Sc). Table 2 lists the concentration of the tested compound that was sufficient to ≥75% inhibition of Saccharomyces cerevisiae (Sc).

[6] = tested on: Mycosphaerella graminicola (synthetic Septoria tritici); assay: Foliar protection test for wheat septoria leaf blotch control; format: in vivo; conditions: foliar spray on Triticum aestivum cv. WinterHawk, inoculated 1 hour after treatment, evaluated 16 days later
Puccinia triticina = assay: Foliar protection test for wheat leaf rust control; format: in vivo; conditions: foliar application to wheat (Triticum aestivum cv. Winterhawk), evaluated 10 days later
[7] = tested on: Blumeria graminis f. sp. hordei; assay: Foliar protection test for barley powdery mildew control; format: in vivo; conditions: foliar spray on Hordeum vulgare cv. Perry, inoculated 24 hours after treatment, evaluated 7 days later
Procedure, shortened: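 Six-day-old barley (cv. Perry) sprayed to wetness on both leaf sides; 24 h later inoculated by shaking spores from infected stock plants. Kept at 20 to 22° C, 70% relative humidity; mildew colonization assessed 7 days later.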

Phakopsora pachyrhizi = assay: Foliar protection test for Asian soybean rust control; format: in vivo; conditions: foliar application to soybean (Glycine max AG4832), percent disease area evaluated 14 days later
Fusarium graminearum = format: in vivo; conditions: spray on flowering Triticum aestivum cv. Samson, inoculated 24 hours after treatment, evaluated 14 days later
Sphaerotheca fuliginea = assay: Foliar protection for cucumber powdery mildew control; format: in vivo; conditions: foliar spray on Cucumis sativus cv. Straight Eight, inoculated 24 hours after treatment, evaluated 7 days later
Procedure, shortened: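 Cucumber plants (cv. Straight Eight, 10 days old) sprayed to wetness on both leaf surfaces, then inoculated 24 h later by shaking sporulating stock plants over them. Held at 23–27 °C, 16 h light, 60% RH. Mildew colonization scored 7 days after inoculation, at compound concentrations of 10 ppm or lower.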

[8] = ≥90% inhibition, 48 hours vs 2% DMSO control, read-out: Compound Concentration (ppm) sufficient for ≥90% inhibition of growth, St
[9] = ≥90% inhibition, 48 hours vs 2% DMSO control, read-out: Compound Concentration (ppm) sufficient for ≥90% inhibition of growth, Bc
[10] = ≥90% inhibition, 48 hours vs 2% DMSO control, read-out: Compound Concentration (ppm) sufficient for ≥90% inhibition of growth, Dm
[11] = ≥90% inhibition, 48 hours vs 2% DMSO control, read-out: Compound Concentration (ppm) sufficient for ≥90% inhibition of growth, Fv
[12] = ≥90% inhibition, 48 hours vs 2% DMSO control, read-out: Compound Concentration (ppm) sufficient for ≥90% inhibition of growth, Pc
[13] = ≥90% inhibition, 48 hours vs 2% DMSO control, read-out: Compound Concentration (ppm) sufficient for ≥90% inhibition of growth, Fm
[14] = ≥90% inhibition, 48 hours vs 2% DMSO control, read-out: Compound Concentration (ppm) sufficient for ≥90% inhibition of growth, Cg
[15] = ≥90% inhibition, 48 hours vs 2% DMSO control, read-out: Compound Concentration (ppm) sufficient for ≥90% inhibition of growth, Rs
[16] = ≥90% growth inhibition, 48 hours, vs 2% DMSO control, read-out: Compound Concentration (ppm) sufficient for ≥90% inhibition of St
[17] = ≥90% growth inhibition, 48 hours, vs 2% DMSO control, read-out: Compound Concentration (ppm) sufficient for ≥90% inhibition of Bc
[18] = ≥90% growth inhibition, 48 hours, vs 2% DMSO control, read-out: Compound Concentration (ppm) sufficient for ≥90% inhibition of Dm
[19] = ≥90% growth inhibition, 48 hours, vs 2% DMSO control, read-out: Compound Concentration (ppm) sufficient for ≥90% inhibition of Fv
[20] = ≥90% growth inhibition, 48 hours, vs 2% DMSO control, read-out: Compound Concentration (ppm) sufficient for ≥90% inhibition of Pc
[21] = ≥90% growth inhibition, 48 hours, vs 2% DMSO control, read-out: Compound Concentration (ppm) sufficient for ≥90% inhibition of Fm
[22] = ≥90% growth inhibition, 48 hours, vs 2% DMSO control, read-out: Compound Concentration (ppm) sufficient for ≥90% inhibition of Cg
[23] = ≥90% growth inhibition, 48 hours, vs 2% DMSO control, read-out: Compound Concentration (ppm) sufficient for ≥90% inhibition of Rs

Row | Compound | IC90 (Septoria tritici (St); [8]) [µg/mL] | IC90 (Botrtyis cinerea (Bc); [9]) [µg/mL] | IC90 (Diplodia maydis (Dm); [10]) [µg/mL] | IC90 [1, 11] [µg/mL] | IC90 [2, 12] [µg/mL] | IC90 [3, 13] [µg/mL] | IC90 [4, 14] [µg/mL] | IC90 (Rhizoctonia solani (Rs); [15]) [µg/mL] | IC75 [5] [µg/mL] | other results
1 | COc1ccccc1[C@H](Cn1c(=O)n(C(C)(C)C(=O)NC(C)C)c(=O)c2c(C)c(-c3ncco3)sc21)OC1CCOCC1 [Compound I-011] | 50 (≈ 81.9 µM) | 0.4 (≈ 0.655 µM) | 2 (≈ 3.27 µM) | 2 (≈ 3.27 µM) | > 50 | 0.08 (≈ 0.131 µM) | 2 (≈ 3.27 µM) | 10 (≈ 16.4 µM) | 1.2 (≈ 1.96 µM) | 
2 | COc1ccccc1[C@H](Cn1c(=O)n(C(C)(C)C(N)=O)c(=O)c2c(C)c(-c3ncco3)sc21)O[C@H]1CC[C@@H](O)CC1 [Compound I-100] | ≥ 50 | 2 (≈ 3.43 µM) | 2 (≈ 3.43 µM) | 10 (≈ 17.2 µM) | > 50 | 0.4 (≈ 0.686 µM) | 50 (≈ 85.8 µM) | 50 (≈ 85.8 µM) | 1.2 (≈ 2.06 µM) | 
3 | CCOC(=O)c1sc2c(c1C)c(=O)n(C(C)(C)C(=O)N1CCCCC1)c(=O)n2C[C@H](OC1CCOCC1)c1ccccc1OC [Compound I-168] |  |  |  |  |  |  |  |  |  | IC90 (Septoria tritici (St); [16]): ≥ 10 µg/mL; IC90 (Botrtyis cinerea (Bc); [17]): 0.4 µg/mL (≈ 0.623 µM); IC90 (Diplodia maydis (Dm); [18]): 2 µg/mL (≈ 3.12 µM); IC90 [1, 19]: ≥ 0.4 µg/mL; IC90 [2, 20]: > 50 µg/mL; IC90 [3, 21]: ≥ 0.4 µg/mL; IC90 [4, 22]: 0.4 µg/mL (≈ 0.623 µM); IC90 (Rhizoctonia solani (Rs); [23]): 2 µg/mL (≈ 3.12 µM); Compound Concentration (ppm) sufficient for ≥75% inhibition of Sc [5]: 1.2 ppm
4 | CCNC(=O)C(C)(C)n1c(=O)c2c(C)c(-c3ncco3)sc2n(C[C@H](OC2CCC(=O)CC2)c2ccccc2OC)c1=O [Compound I-105] | > 50 | 2 (≈ 3.29 µM) | 10 (≈ 16.4 µM) | 10 (≈ 16.4 µM) | > 50 | 0.4 (≈ 0.657 µM) | 50 (≈ 82.1 µM) | > 50 | 1.2 (≈ 1.97 µM) | 
5 | COc1ccc(F)cc1[C@H](Cn1c(=O)n(C(C)(C)C(N)=O)c(=O)c2c(C)c(-c3ncco3)sc21)O[C@H]1CC[C@@H](O)CC1 [Compound I-103] | > 10 | 2 (≈ 3.33 µM) | 10 (≈ 16.6 µM) | 2 (≈ 3.33 µM) | > 50 | 0.4 (≈ 0.666 µM) | 50 (≈ 83.2 µM) | 50 (≈ 83.2 µM) | 1.2 (≈ 2 µM) | 
6 | COc1ccc(F)cc1[C@H](Cn1c(=O)n(C(C)(C)C(=O)N2CCOCC2)c(=O)c2c(C)c(-n3cccn3)sc21)OC(C)C [Compound I-151] | > 50 | 10 (≈ 16.3 µM) | 10 (≈ 16.3 µM) | 2 (≈ 3.26 µM) | > 50 | 2 (≈ 3.26 µM) | 50 (≈ 81.5 µM) | > 50 | 11 (≈ 17.9 µM) | 
7 | COc1ccc(F)cc1[C@H](Cn1c(=O)n(C(C)(C)C(N)=O)c(=O)c2c(C)c(-n3nccn3)sc21)OC1CCOCC1 [Compound I-102] | ≥ 50 | 2 (≈ 3.41 µM) | 2 (≈ 3.41 µM) | 2 (≈ 3.41 µM) | 10 (≈ 17 µM) | 0.4 (≈ 0.682 µM) | 2 (≈ 3.41 µM) | ≥ 2 | 1.2 (≈ 2.05 µM) | 
8 | CCOC(=O)c1sc2c(c1C)c(=O)n(C(C)(C)C(=O)NC(C)C)c(=O)n2C[C@H](OCCO)c1cc(F)ccc1OC [Compound I-184, (R)-ethyl-1-(2-(5-fluoro-2-methoxyphenyl)-2-(2-hydroxyethoxy)ethyl)-3-(1-(isopropylamino)-2-methyl-1-oxopropan-2-yl)-5-methyl-2,4-dioxo-1,2,3,4-tetrahydrothieno[2,3-d]pyrimidine-6-carboxylate] |  |  |  |  |  |  |  |  |  | Septoria Leaf Blotch Control at a compound concentration of 25 ppm or lower [6]: C (from 25 to 49% control of wheat septoria leaf blotch); Wheat Leaf Rust Control at a compound concentration of 10 ppm or lower (Puccinia triticina): AA (≥85% control of wheat leaf rust); IC90 (Septoria tritici (St); [16]): > 50 µg/mL; IC90 (Botrtyis cinerea (Bc); [17]): 2 µg/mL (≈ 3.37 µM); IC90 (Diplodia maydis (Dm); [18]): 0.4 µg/mL (≈ 0.674 µM); IC90 [1, 19]: 2 µg/mL (≈ 3.37 µM); Barley Powdery Mildew Control at a compound concentration of 10 ppm or lower [7]: A (from 70% to 84% control of barley powdery mildew); IC90 [2, 20]: 50 µg/mL (≈ 84.2 µM); Asian Soybean Rust Control at a compound concentration of 25 ppm or lower (Phakopsora pachyrhizi): B (from 50 to 69% control of Asian soybean rust); IC90 [3, 21]: 0.08 µg/mL (≈ 0.135 µM); Wheat Fusarium Head Blight Control at a compound concentration of 25 ppm or lower (Fusarium graminearum): A (from 70% to 84% control of wheat fusarium head blight); IC90 [4, 22]: 0.4 µg/mL (≈ 0.674 µM); IC90 (Rhizoctonia solani (Rs); [23]): 0.08 µg/mL (≈ 0.135 µM); Cucumber Powdery Mildew Control at a compound concentration of 10 ppm or lower (Sphaerotheca fuliginea): AA (≥85% control of cucumber powdery mildew)
